The target in assay [1] is T1, recombinant human cIAP1-BIR3 protein (Homo sapiens, UniProt Q13490).
T1 construct: recombinant human cIAP1-BIR3 protein; purchased Reaction biology APT-11-370
As to the kind of experiment: Recombinant human c-IAP1-BIR3 biochemical assay (HTRF, peptide displacement). Conditions: 1.2 nM cIAP1-BIR3, 3 nM AbuRPF-K(5-Fam)-NH2 peptide, read-out: Protein binding IC50 (nM) c-IAP1. Put shortly:
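HTRF peptide displacement: after 1 h compound pre-incubation (max 10 uM, 4-fold dilutions, 10 points) with 1.2 nM protein in HEPES pH 7.5 buffer, 3 nM 5-Fam-labelled AbuRPF-K peptide and Tb-anti-6His were each added for 1 h at room temperature. Inhibition taken from 520/490 nm ratio, fitted four-parameter logistic for IC50.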

The target in assay [2] is T2, recombinant human cIAP2-BIR3 protein (Homo sapiens, UniProt Q13489).
T2 construct: recombinant human cIAP2-BIR3 protein; purchased Reaction biology APT-11-372
Kind of assay: Recombinant human c-IAP2-BIR3 biochemical assay (HTRF, peptide displacement). To be noted: 3.7 nM cIAP2-BIR3, 3.7 nM AbuRPF-K(5-Fam)-NH2 peptide, read-out: Protein binding IC50 (nM) c-IAP2. Put shortly:
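HTRF peptide-displacement readout (ex337, em520/490 ratio) after sequential 1 h room-temperature steps: compound with 3.7 nM protein, then 3.7 nM 5-Fam-labelled AbuRPF peptide, then Tb-cryptate anti-6His antibody. Buffer pH 7.5 HEPES with NaCl, Tween-20, DTT; 10-point 4-fold dilutions from 10 uM; four-parameter logistic IC50.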
In general terms: Time-resolved FRET reads energy transfer from a long-lived donor to a nearby acceptor.

Assay [3] deals with T3, recombinant human XIAP-BIR3 protein (Homo sapiens, UniProt P98170).
T3 construct: recombinant human XIAP-BIR3 protein; purchased Reaction biology APT-11-374
Kind of assay: Recombinant human XIAP-BIR3 biochemical assay (HTRF, peptide displacement). Conditions: 3.7 nM XIAP-BIR3, 7.6 nM AbuRPF-K(5-Fam)-NH2 peptide, read-out: Protein binding IC50 (nM) XIAP. The gist of the method: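 HTRF peptide displacement with 7.6 nM 5-Fam-labelled AbuRPF peptide, anti-6His Tb donor and 3.7 nM recombinant XIAP-BIR3. Protein and compound (10-point, 4-fold from 10 µM) were preincubated 1 h RT in HEPES pH 7.5 buffer before each addition, each 1 h. IC50 by four-parameter fit of the 520/490 nm ratio.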

The text below walks through data of patent US12583866B2, “Pyrido[2,3-b][1,4]oxazines or tetrahydropyrido[2,3-b][1,4]oxazepines as IAP antagonists” (BEIGENE, LTD., priority 2020, dated 2026).

One may read the IC50 as the concentration needed to halve the response being measured.

T2 sequence (Q13489 238-349 limits assumed): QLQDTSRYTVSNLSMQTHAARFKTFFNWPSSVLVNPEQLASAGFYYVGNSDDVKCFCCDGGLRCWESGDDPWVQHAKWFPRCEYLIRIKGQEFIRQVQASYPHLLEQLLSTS
T3 sequence (P98170 241-356 limits assumed): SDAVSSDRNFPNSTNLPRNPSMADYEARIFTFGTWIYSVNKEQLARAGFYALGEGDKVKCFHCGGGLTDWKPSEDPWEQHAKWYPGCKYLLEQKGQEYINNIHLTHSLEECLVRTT
T1 sequence (Q13490 253-363 limits assumed): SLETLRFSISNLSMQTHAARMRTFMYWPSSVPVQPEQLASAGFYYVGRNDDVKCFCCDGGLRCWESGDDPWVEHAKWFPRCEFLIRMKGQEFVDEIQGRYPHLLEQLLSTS

Turning to `C[C@@H]1CN(CC(=O)N2c3cc(Cc4ccc(F)cc4)c(C(=O)N[C@@H]4CCOC4)nc3OC[C@@H]2C)[C@@H](CN2[C@H](C)COC[C@H]2C)CN1` [Example 78, (S)-1-(2-((2R,5R)-2-(((3R,5R)-3,5-dimethylmorpholino)methyl)-5-methylpiperazin-1-yl)acetyl)-7-(4-fluorobenzyl)-2-methyl-N—((R)-tetrahydrofuran-3-yl)-2,3-dihydro-1H-pyrido[2,3-b][1,4]oxazine-6-carboxamide], the IC50 in assay [1] amounted to 0.17 nM; in assay [2], 0.31 nM; in assay [3] it was 3.2 nM.
Consider `C[C@@H]1CN(CC(=O)N2c3cc(Cc4ccc(F)cc4)c(C(=O)N[C@H]4CCOC4)nc3OC[C@@H]2C)[C@@H](CN2[C@H](C)COC[C@H]2C)CN1` [Example 79, (S)-1-(2-((2R,5R)-2-(((3R,5R)-3,5-dimethylmorpholino)methyl)-5-methylpiperazin-1-yl)acetyl)-7-(4-fluorobenzyl)-2-methyl-N—((S)-tetrahydrofuran-3-yl)-2,3-dihydro-1H-pyrido[2,3-b][1,4]oxazine-6-carboxamide], for which the IC50 was determined as 0.19 nM in assay [1], 0.33 nM in assay [2] and 5.2 nM in assay [3].
`C[C@@H]1CN(CC(=O)N2c3cc(Cc4ccc(F)cc4)c(C(=O)N(C)C)nc3OC[C@@H]2C)[C@@H](CN2[C@H](C)COC[C@H]2C)CN1` [Example 80, (S)-1-(2-((2R,5R)-2-(((3R,5R)-3,5-dimethylmorpholino)methyl)-5-methylpiperazin-1-yl)acetyl)-7-(4-fluorobenzyl)-N,N,2-trimethyl-2,3-dihydro-1H-pyrido[2,3-b][1,4]oxazine-6-carboxamide]: the results for the IC50 in assay [1], in assay [2] and in assay [3] were 0.22 nM, 0.3 nM and 4.9 nM, respectively.
In the case of `C[C@@H]1CN(CC(=O)N2c3cc(Cc4ccc(F)cc4)c(O)nc3OC[C@@H]2C)[C@@H](CN2[C@H](C)COC[C@H]2C)CN1` [Example 81], the 50% inhibitory concentration (IC50) in assay [1] was found to be 0.18 nM; in assay [2], 0.42 nM; in assay [3] it was 2.9 nM.
In the same order, the values of `C[C@@H]1CN(CC(=O)N2c3cc(Cc4ccc(F)cc4)c(C(N)=O)nc3OC[C@@H]2C)[C@@H](CN2CCOC[C@H]2C(F)F)CN1` [Example 82] are 0.54 nM, 0.73 nM and 10 nM.
Consider `C[C@@H]1CN(CC(=O)N2c3cc(Cc4ccc(F)cc4F)c(C(N)=O)nc3OC[C@@H]2C)[C@@H](CN2[C@H](C)COC[C@H]2C)CN1` [Example 83, (S)-7-(2,4-difluorobenzyl)-1-(2-((2R,5R)-2-(((3R,5R)-3,5-dimethylmorpholino)methyl)-5-methylpiperazin-1-yl)acetyl)-2-methyl-2,3-dihydro-1H-pyrido[2,3-b][1,4]oxazine-6-carboxamide], for which the values for the IC50 in assay [1], in assay [2] and in assay [3] were 0.2 nM, 0.4 nM and 7.2 nM, respectively.
In the same order, the values of `C[C@@H]1CN(CC(=O)N2c3cc(Cc4ccc(F)cc4)c(CO)nc3OC[C@@H]2C)[C@@H](CN2CCOC[C@H]2C2CC2)CN1` [Example 84A, 2-((2R,5R)-2-(((R)-3-cyclopropylmorpholino)methyl)-5-methylpiperazin-1-yl)-1-((S)-7-(4-fluorobenzyl)-6-(hydroxymethyl)-2-methyl-2,3-dihydro-1H-pyrido[2,3-b][1,4]oxazin-1-yl)ethan-1-one] are 0.29 nM, 0.44 nM and 6.4 nM.
The matching figures for `C[C@@H]1CN(CC(=O)N2c3cc(Cc4ccc(F)cc4)c(CO)nc3OC[C@@H]2C)[C@@H](CN2CCOC[C@@H]2C2CC2)CN1` [Example 84B]: 0.78 nM, 1.6 nM and 46 nM.
In the same order, the values of `C[C@@H]1CN(CC(=O)N2c3cc(Cc4ccc(F)cc4)c(CO)nc3OC[C@@H]2C)[C@@H](CN2C[C@@H]3C[C@H]2CO3)CN1` [Example 85, 2-((2R,5R)-2-(((1S,4S)-2-oxa-5-azabicyclo[2.2.1]heptan-5-yl)methyl)-5-methylpiperazin-1-yl)-1-((S)-7-(4-fluorobenzyl)-6-(hydroxymethyl)-2-methyl-2,3-dihydro-1H-pyrido[2,3-b][1,4]oxazin-1-yl)ethan-1-one] are 0.68 nM, 0.72 nM and 20 nM.
